Test results as given in patent US7276514B2, “Pyrroloquinoline quinone drugs for treatment of cardiac injury and methods of use thereof” (Charitable Leadership Foundation - Medical Technology …, priority 2002, dated 2007).
“Also recorded” adds a separate entry of the source.

Key:
[1] = system: adult cardiac mouse myocytes; assay: Cultured adult cardiac mouse myocytes exposed to severe hypoxia, viability by trypan blue exclusion; format: cell-based
Procedure: An in vitro model of cultured adult cardiac mouse myocytes was developed to study cardioprotection by PQQ. These cells are viable in culture for up to 48 hours at a physiologic pH and consist of >90% rod-shaped cells. These cells can be used readily for determination of cell viability by trypan blue exclusion, and for biochemical, immunochemical, and molecular studies. In this model, approximately 35% of the cells die when exposed to 0% oxygen in a hypoxia chamber for 2-3 hours. […] A higher concentration of PQQ (100 μM) is highly toxic under normoxic conditions as evidenced by 100% cell death.

[2] = system: adult mouse cardiac myocytes; assay: Toxicity of PQQ to cultured adult mouse cardiac myocytes under normoxic conditions; format: cell-based; conditions: 100 μM PQQ
Procedure: The invention encompasses methods of treating or preventing cardiac injury caused by hypoxia or ischemia in a subject, wherein PQQ is administered to a subject in need thereof, such that hypoxia or ischemic-related injury is prevented or decreased. In certain embodiments, the PQQ is administered at a concentration of less than about 10 μM. In other embodiments, the PQQ is administered at a concentration in the range of about 10 nM to about 10 μM, about 10 nM to about 1 μM, 100 nM to about 10 μM, and 100 nM to about 500 nM. In still other embodiments of the invention, the PQQ is administered at a concentration such that the concentration of PQQ at the site of cardiac tissue is in the range of 10 nM to about 10 μM. PQQ may also be administered as a function of the subject's body weight. In some embodiments of the invention, PQQ is administered at a concentration of between about 1 μg/kg to 1 g/kg of a subject's body weight, including less than 500 mg/kg, 250 mg/kg, 100 mg/kg, 10 mg/kg, 5 mg/kg, 2 mg/kg, 1 mg/kg, 500 μg/kg, 250 μg/kg, 100 μg/kg, 10 μg/kg, 5 μg/kg, 2 μg/kg or 1 μg/kg. […]
An in vitro model of cultured adult cardiac mouse myocytes was developed to study cardioprotection by PQQ. […] These cells can be used readily for determination of cell viability by trypan blue exclusion, and for biochemical, immunochemical, and molecular studies. […]

isolated mouse heart [3] = assay: Ex vivo isolated mouse heart (Langendorff), 20 min ischemia followed by 30 min reperfusion
Procedure: Ex vivo studies were performed using an isolated mouse heart preparation employing the Langendorff technique. In this approach, the heart is removed and mounted on a perfusion apparatus in which drugs can be given via an aortic cannula. The heart is paced at a constant rate, and left ventricular developed pressure [LVDP; left ventricular systolic pressure minus left ventricular end-diastolic pressure], left ventricular end-diastolic pressure [LVEDP], and the maximum positive and negative first derivatives of left ventricular pressure [+dP/dtmax and −dP/dtmax] are recorded. The heart is equilibrated for 20 min. After drug or vehicle is infused, the heart is subjected to 20 min of ischemia [coronary flow completely stopped] followed by 30 min of reperfusion. Coronary sinus flow as a reflection of coronary blood flow is also measured. This protocol leads to severe myocardial injury as measured by hemodynamic parameters.

cardiac myocytes = assay: Cultured cardiac myocytes subjected to oxidative stress by H2O2; format: cell-based
Procedure: Cultured cardiac myocytes are subjected to oxidative stress by in vitro administration of H2O2. Two studies are done, one in which PQQ is added in concentrations between 10 nM and less than 10 μM to cardiac myocytes, after which H2O2 is added. In the other study, cardiac myocytes are subjected to insult in vitro admininstration of H2O2 for two hours, after which PQQ is added in concentrations between 10 nM and less than 10 μM. In both studies, PQQ is found to be protective.

isolated mouse heart [4] = assay: Ex vivo isolated mouse heart (Langendorff), 20 min ischemia followed by 30 min reperfusion; conditions: 100 nM PQQ given at the time of onset of reperfusion
[5] = 100 nM PQQ infused for 2 minutes prior to ischemia

SMILES: O=C(O)c1cc(C(=O)O)c2c(n1)C(=O)C(=O)c1cc(C(=O)O)[nH]c1-2 [PQQ, Pyrroloquinoline quinone]
- proportion of viable cells (trypan blue exclusion) after hypoxia ([1]; 1 μM PQQ added 1 hour before severe hypoxia (0% oxygen for 2-3 hours)): significant increase
- PQQ protection against hypoxia-induced cell death in presence of mitochondrial KATP channel inhibitor ([1]; 1 μM PQQ with 100 μM 5-hydroxydecanoic acid): not inhibited
- PQQ protection in presence of mitochondrial KATP channel inhibitor (FIG. 2 legend) ([1]; 10 μM 5-hydroxydecanoic acid): not inhibited
- toxicity to cultured adult mouse cardiac myocytes [2]: highly toxic; also recorded: observed
- cell death ([2]; normoxic conditions): 100%
- +dP/dtmax (isolated mouse heart [3]; [5]): track the LVDP results
- left ventricular developed pressure (LVDP) (isolated mouse heart [3]; [5]): significant preservation; also recorded: preserves
- left ventricular end-diastolic pressure (LVEDP) (isolated mouse heart [3]; [5]): preserves
- −dP/dtmax (isolated mouse heart [3]; [5]): track the LVDP results
- toxicity (FIG. 8) (isolated mouse heart [3]; 2 min pretreatment, 10 μM PQQ): toxicity occurs
- hemodynamic response (FIG. 8) (isolated mouse heart [3]; 2 min pretreatment, PQQ between 10 nM and 1 μM): progressively favorable responses
- infarct size (isolated mouse heart [3]; PQQ pretreatment at 10 μM): not reduced
- infarct size (isolated mouse heart [3]; PQQ pretreatment between 10 nM and 1 μM): progressive reduction
- coronary flow (isolated mouse heart [3]; PQQ pretreatment compared to control): significantly improved
- protection of cardiac myocytes against H2O2 oxidative stress (cardiac myocytes; PQQ between 10 nM and less than 10 μM added after two hours of H2O2): protective
- protection of cardiac myocytes against H2O2 oxidative stress (cardiac myocytes; PQQ between 10 nM and less than 10 μM added before H2O2): protective
- hemodynamic response when given at onset of reperfusion (PQQ tre.) (isolated mouse heart [4]): equivalent to pretreatment
